Molecules are shown by their SMILES. Like-named read-outs stand apart in the source and are kept apart here.

Experiment [1] relates to Cytosine deaminase (CDA). The conditions noted are these: read-out: Free CDA / Km; free enzyme; Tris-HCl 50 mM pH 7.0, 37 °C. The source says:
deamination, released 5-fluorouracil on Cytosine deaminase (CDA)

In experiment [2] the test system is Cytosine deaminase (CDA). Conditions: read-out: Free CDA / Km; free enzyme; Tris-HCl 50 mM pH 7.0, 37 °C. The source holds these as a separate data set.

As to `Nc1nc(=O)[nH]cc1F` [5-fluorocytosine], the Km in experiment [1] came out at 220 µM.

Take `Nc1cc[nH]c(=O)n1` [Cytosine]: the Km in experiment [2] worked out at 360 µM.

Values taken from publication PMC9830863, “Aspergillus Niger thermostable Cytosine deaminase-dextran conjugates with enhanced structure stability, proteolytic resistance, and Antiproliferative activity” (BMC Microbiology, 2023).
